According to the NIST ThermoML archive (doi:10.1021/je049655w):

How the values were obtained:
[1] = xn = mol fraction of the nth substance listed; settings: 100.8 kPa, Liquid
[2] = 100.8 kPa, Liquid
[3] = refractive index (Na D-line) (dimensionless); settings: 298.15 K; 101.33 kPa; Liquid; Standard Abbe refractometry

CCC(C)=O [butanone] + CC(C)CC(C)(C)C
[1]
Settings | mass density, 298.15 K [kg/m3] | mass density, 308.15 K [kg/m3] | mass density, 318.15 K [kg/m3] | viscosity, 298.15 K [mPa·s] | viscosity, 308.15 K [mPa·s] | viscosity, 318.15 K [mPa·s]
x1 = 0.05 | 690.1 | 681.7 | 673.1 | 0.461 | 0.416 | 0.374
x1 = 0.1 | 692.7 | 684.2 | 675.4 | 0.451 | 0.408 | 0.367
x1 = 0.15 | 695.6 | 687 | 678.2 | 0.443 | 0.4 | 0.36
x1 = 0.2 | 698.7 | 690.1 | 681.1 | 0.436 | 0.394 | 0.354
x1 = 0.25 | 702.2 | 693.4 | 684.3 | 0.429 | 0.388 | 0.349
x1 = 0.3 | 705.9 | 697 | 687.8 | 0.423 | 0.382 | 0.344
x1 = 0.35 | 709.9 | 700.9 | 691.6 | 0.417 | 0.377 | 0.339
x1 = 0.4 | 714.1 | 705.1 | 695.7 | 0.412 | 0.372 | 0.335
x1 = 0.45 | 718.7 | 709.5 | 700.1 | 0.407 | 0.368 | 0.331
x1 = 0.5 | 723.6 | 714.3 | 704.8 | 0.402 | 0.363 | 0.328
x1 = 0.55 | 728.8 | 719.4 | 709.8 | 0.398 | 0.36 | 0.325
x1 = 0.6 | 734.5 | 724.9 | 715.3 | 0.394 | 0.356 | 0.322
x1 = 0.65 | 740.6 | 731 | 721.2 | 0.39 | 0.353 | 0.32
x1 = 0.7 | 747.2 | 737.4 | 727.5 | 0.387 | 0.35 | 0.317
x1 = 0.75 | 754.2 | 744.3 | 734.3 | 0.384 | 0.347 | 0.315
x1 = 0.8 | 761.9 | 751.9 | 741.7 | 0.381 | 0.345 | 0.313
x1 = 0.85 | 770.4 | 760.2 | 749.9 | 0.379 | 0.343 | 0.311
x1 = 0.9 | 779.3 | 769 | 758.6 | 0.377 | 0.342 | 0.309
x1 = 0.95 | 789.2 | 778.8 | 768.2 | 0.377 | 0.341 | 0.308
x1 = 1 | 799.7 | 789.2 | 778.4 | 0.378 | 0.341 | 0.307

CCC(C)=O [butanone] + CCO
[1]
Settings | mass density, 298.15 K [kg/m3] | mass density, 308.15 K [kg/m3] | mass density, 318.15 K [kg/m3] | viscosity, 298.15 K [mPa·s] | viscosity, 308.15 K [mPa·s] | viscosity, 318.15 K [mPa·s]
x2 = 0 | 799.7 | 789.2 | 778.4 | 0.378 | 0.341 | 0.307
x2 = 0.05 | 799.3 | 788.8 | 778 | 0.38 | 0.345 | 0.313
x2 = 0.1 | 798.9 | 788.3 | 777.6 | 0.386 | 0.349 | 0.316
x2 = 0.15 | 798.4 | 787.9 | 777.2 | 0.393 | 0.353 | 0.32
x2 = 0.2 | 797.9 | 787.4 | 776.8 | 0.4 | 0.359 | 0.324
x2 = 0.25 | 797.4 | 787 | 776.4 | 0.409 | 0.366 | 0.33
x2 = 0.3 | 796.9 | 786.5 | 776 | 0.42 | 0.376 | 0.337
x2 = 0.35 | 796.4 | 786.1 | 775.6 | 0.431 | 0.387 | 0.345
x2 = 0.4 | 795.8 | 785.6 | 775.2 | 0.446 | 0.397 | 0.355
x2 = 0.45 | 795.2 | 785.1 | 774.7 | 0.469 | 0.412 | 0.365
x2 = 0.5 | 794.6 | 784.6 | 774.3 | 0.49 | 0.426 | 0.381
x2 = 0.55 | 794 | 784 | 773.8 | 0.512 | 0.443 | 0.398
x2 = 0.6 | 793.3 | 783.4 | 773.3 | 0.539 | 0.467 | 0.412
x2 = 0.65 | 792.6 | 782.8 | 772.8 | 0.576 | 0.493 | 0.434
x2 = 0.7 | 791.8 | 782.1 | 772.2 | 0.618 | 0.526 | 0.456
x2 = 0.75 | 790.9 | 781.4 | 771.6 | 0.673 | 0.56 | 0.482
x2 = 0.8 | 790 | 780.6 | 771 | 0.734 | 0.601 | 0.519
x2 = 0.85 | 788.9 | 779.7 | 770.3 | 0.799 | 0.654 | 0.56
x2 = 0.9 | 787.8 | 778.7 | 769.5 | 0.869 | 0.722 | 0.613
x2 = 0.95 | 786.6 | 777.7 | 768.6 | 0.961 | 0.803 | 0.676

CCO [ethanol]
[2]
Settings | mass density [kg/m3] | viscosity [mPa·s]
298.15 K | 785.1 | 1.088
308.15 K | 776.5 | 0.904
318.15 K | 767.7 | 0.763

Settings | refractive index
[3] | 1.35949

CCO [ethanol] + CC(C)CC(C)(C)C
[1], x1 = 1
Settings | mass density [kg/m3] | viscosity [mPa·s]
298.15 K | 785.1 | 1.088
308.15 K | 776.5 | 0.904
318.15 K | 767.7 | 0.763

CCO [ethanol] + CCC(C)=O
[1], x1 = 1
Settings | mass density [kg/m3] | viscosity [mPa·s]
298.15 K | 785.1 | 1.088
308.15 K | 776.5 | 0.904
318.15 K | 767.7 | 0.763
